Drawing on ChEMBL document CHEMBL1240402 (2010), this text covers MIC for two molecules.

In this test the test system is Clostridium perfringens.

≈ marks a conversion by molar mass, not a printed value.

The MIC is the smallest concentration in the dilution series that meets the test's criterion for growth inhibition. A high value points to a need for much substance.

`CC(=O)NC[C@H]1CN(c2ccc(N3CCOCC3)c(F)c2)C(=O)O1` [LINEZOLID] yielded an MIC of 64 µg/mL (≈ 190 µM). Molecule `CS(=O)(=O)c1ccc([C@@H](O)[C@@H](CF)NC(=O)C(Cl)Cl)cc1` [FLORFENICOL] registered an MIC of 16 µg/mL (≈ 44.7 µM).
